For the assay, the target named is PIK3CA (human) (UniProt P42336). As to the kind of experiment: Assessment of PIK3CA Kinase Activity.
Chain of PIK3CA (human) (P42336 whole entry, looked up): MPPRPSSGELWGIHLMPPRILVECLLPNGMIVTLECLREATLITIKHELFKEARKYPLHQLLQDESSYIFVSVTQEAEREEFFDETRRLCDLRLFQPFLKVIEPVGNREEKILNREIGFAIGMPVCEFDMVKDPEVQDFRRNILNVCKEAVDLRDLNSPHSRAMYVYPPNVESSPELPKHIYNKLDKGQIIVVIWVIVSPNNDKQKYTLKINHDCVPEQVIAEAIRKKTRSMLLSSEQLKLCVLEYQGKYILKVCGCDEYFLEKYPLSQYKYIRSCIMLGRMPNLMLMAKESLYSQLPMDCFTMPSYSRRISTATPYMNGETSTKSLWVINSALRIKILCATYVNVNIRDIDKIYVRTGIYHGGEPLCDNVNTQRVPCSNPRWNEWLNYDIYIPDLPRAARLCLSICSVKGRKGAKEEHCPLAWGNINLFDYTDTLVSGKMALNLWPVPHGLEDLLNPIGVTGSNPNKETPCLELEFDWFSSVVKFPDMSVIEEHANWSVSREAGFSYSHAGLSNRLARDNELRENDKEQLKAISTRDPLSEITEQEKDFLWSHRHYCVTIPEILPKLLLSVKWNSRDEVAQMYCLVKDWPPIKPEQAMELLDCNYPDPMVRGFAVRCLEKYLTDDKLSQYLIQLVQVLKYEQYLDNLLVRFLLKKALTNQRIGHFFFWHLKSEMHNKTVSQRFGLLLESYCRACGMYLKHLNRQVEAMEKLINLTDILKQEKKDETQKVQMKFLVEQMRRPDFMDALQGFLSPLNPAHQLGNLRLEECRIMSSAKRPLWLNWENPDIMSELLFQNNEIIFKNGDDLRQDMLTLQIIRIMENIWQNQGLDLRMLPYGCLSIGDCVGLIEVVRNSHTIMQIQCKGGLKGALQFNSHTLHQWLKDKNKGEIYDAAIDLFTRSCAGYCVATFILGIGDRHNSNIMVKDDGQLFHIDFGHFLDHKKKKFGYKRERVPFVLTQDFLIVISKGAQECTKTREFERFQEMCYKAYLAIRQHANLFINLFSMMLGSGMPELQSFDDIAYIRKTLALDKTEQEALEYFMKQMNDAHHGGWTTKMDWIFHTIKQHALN
For the molecule `CN(C)C(=O)c1ccc(NC(=O)Nc2ccc(-c3nc(N4CCOCC4)c4ccc(-c5ccc(C(C)(C)O)o5)cc4n3)c(F)c2)cc1`, the IC50 (usually the concentration that gives 50% inhibition) is 50 to 200 nM.

In the case of `CN(C)CCNC(=O)c1ccc(NC(=O)Nc2ccc(-c3nc(N4CCOCC4)c4ccc(-c5cncnc5)cc4n3)cc2F)cc1`, the IC50 is under 50 nM.

With `CN(C)C(=O)c1ccc(NC(=O)Nc2ccc(-c3nc(N4CCOCC4)c4ccc(-c5ccccn5)cc4n3)cc2)c(F)c1`, the IC50 is under 50 nM.

For the molecule `COc1ccc(-c2ccc3c(N4CCOCC4)nc(-c4ccc(NC(=O)Nc5ccc(C(=O)N(C)C)cc5F)cc4)nc3c2)cn1`, the half-inhibitory concentration (IC50) was under 50 nM.

The molecule `CN(C)C(=O)c1ccc(NC(=O)Nc2ccc(-c3nc(N4CCOCC4)c4ccc(-c5ccc(N)nc5)cc4n3)cc2)cc1` displayed an IC50 of under 50 nM.

`CN(C)[C@H]1CCN(C(=O)c2ccc(NC(=O)Nc3ccc(-c4nc(N5CCOCC5)c5ncc(-c6cccnc6F)cc5n4)cc3F)cc2)C1` showed an IC50 of under 50 nM.

`CN(C)CCNC(=O)c1ccc(NC(=O)Nc2ccc(-c3nc(N4CCOCC4)c4ccc(-c5cncnc5)cc4n3)cc2)cc1` yielded an IC50 of 50 to 200 nM.

`CNC(=O)c1ccc(NC(=O)Nc2ccc(-c3nc(N4CCOCC4)c4ccc(-c5ccc(C)o5)cc4n3)cc2)cc1` registered a concentration for half-maximal inhibition (IC50) of 50 to 200 nM.

On to `CN(C)C(=O)c1ccc(NC(=O)Nc2ccc(-c3nc(N4CCOCC4)c4cc(F)c(-c5cccnc5)cc4n3)cc2)cc1`, for which the IC50 was under 50 nM.

Take `CC(O)c1ccc(-c2cnc3c(N4CCOCC4)nc(-c4ccc(NC(=O)Nc5ccc(C(=O)N(C)C)cc5)cc4)nc3c2)o1` (stereo unspecified): the IC50 was under 50 nM.

The molecule `CN(C)C(=O)c1ccc(NC(=O)Nc2ccc(-c3nc(N4CCOCC4)c4ccc(-c5ccccn5)cc4n3)cc2)cc1` came in with an IC50 of under 50 nM.

In the case of `Cc1ccncc1-c1ccc2c(N3CCOCC3)nc(-c3ccc(NC(=O)Nc4ccc(C(=O)N5CCC(N(C)C)CC5)cc4)cc3)nc2c1`, the IC50 was under 50 nM.

`CN1CCN(C(=O)c2ccc(NC(=O)Nc3ccc(-c4nc(N5CCOCC5)c5ccc(-c6ccncc6)cc5n4)cc3)cc2)CC1` displayed an IC50 of under 50 nM.

As to `CN1CCN(C(=O)c2ccc(NC(=O)Nc3ccc(-c4nc(N5CCOCC5)c5ccc(-c6cccnc6F)cc5n4)cc3)cc2)CC1`, the half-maximal inhibitory concentration (IC50) was under 50 nM.

`Cc1noc(C)c1-c1ccc2c(N3CCOCC3)nc(-c3ccc(NC(=O)Nc4ccc(C(=O)N(C)C)cc4)cc3)nc2c1` returned a concentration for half-maximal inhibition (IC50) of under 50 nM.

In turn, `COc1ccc(-c2ccc3c(N4CCOCC4)nc(-c4ccc(NC(=O)Nc5ccc(C(=O)N(C)C)c(F)c5)cc4)nc3c2)cn1` gave an IC50 of 50 to 200 nM.

`CN1CCN(C(=O)c2ccc(NC(=O)Nc3ccc(-c4nc(N5CCOCC5)c5cc(F)c(-c6cccnc6)cc5n4)cc3F)cc2)CC1` displayed an IC50 of under 50 nM.

On to `Cc1ccc(-c2ccc3c(N4CCOCC4)nc(-c4ccc(NC(=O)Nc5ccc(C(=O)N(C)C)cc5)cc4)nc3c2)s1`, for which the IC50 is 50 to 200 nM.

For `CN1CCN(C(=O)c2ccc(NC(=O)Nc3ccc(-c4nc(N5CCOCC5)c5cc(F)c(-c6cccnc6)cc5n4)cc3)cc2)CC1`, the IC50 was under 50 nM.

`CN(C)C(=O)c1ccc(NC(=O)Nc2ccc(-c3nc(N4CCOCC4)c4ncc(-c5cccnc5)cc4n3)cc2)c(F)c1`: the IC50 was under 50 nM.

The molecule `CN(C)C(=O)c1ccc(NC(=O)Nc2ccc(-c3nc(N4CCOCC4)c4ccc(-c5ccoc5)cc4n3)cc2)cc1` returned a half-maximal inhibitory concentration (IC50) of 50 to 200 nM.

Molecule `CN(C)C(=O)c1ccc(NC(=O)Nc2ccc(-c3nc(N4CCOCC4)c4ccc(-c5cccc(S(C)(=O)=O)c5)cc4n3)c(F)c2)cc1` came in with a half-maximal inhibitory concentration (IC50) of under 50 nM.

Molecule `N[C@H]1CCN(C(=O)c2ccc(NC(=O)Nc3ccc(-c4nc(N5CCOCC5)c5ccc(-c6ccco6)cc5n4)cc3)cc2)C1` returned an IC50 of under 50 nM.

On to `COc1ncc(-c2ccc3c(N4CCOCC4)nc(-c4ccc(NC(=O)Nc5ccc(C(=O)N(C)C)c(F)c5)cc4)nc3c2)cn1`, for which the IC50 was under 50 nM.

As to `CN(C)C(=O)c1ccc(NC(=O)Nc2ccc(-c3nc(N4CCOCC4)c4ccc(-c5ccco5)cc4n3)c(F)c2F)cc1`, the IC50 was 50 to 200 nM.

For the molecule `COc1ncccc1-c1ccc2c(N3CCOCC3)nc(-c3ccc(NC(=O)Nc4ccc(C(=O)N(C)C)cc4)cc3F)nc2c1`, the IC50 fell in the range of 50 to 200 nM.

`CN(C)C(=O)c1ccc(NC(=O)Nc2ccc(-c3nc(N4CCOCC4)c4ccc(-c5cncnc5)cc4n3)cc2F)cn1` registered an IC50 of 50 to 200 nM.

For the molecule `CN(C)C(=O)c1ccc(NC(=O)Nc2ccc(-c3nc(N4CCOCC4)c4ccc(-c5ccc(CO)o5)cc4n3)c(F)c2)cc1`, the IC50 was under 50 nM.

Molecule `CN(C)C(=O)c1ccc(NC(=O)Nc2ccc(-c3nc(N4CCOCC4)c4ccc(-c5cnc(N)nc5)cc4n3)cc2)cc1` showed an IC50 of under 50 nM.

In turn, `CN(C)C(=O)c1ccc(NC(=O)Nc2ccc(-c3nc(N4CCOCC4)c4ncc(-c5ccnnc5)cc4n3)cc2)cc1` yielded a concentration for half-maximal inhibition (IC50) of under 50 nM.

`CN(C)C(=O)c1ccc(NC(=O)Nc2ccc(-c3nc(N4CCOCC4)c4ccc(-c5cccnc5F)cc4n3)cc2)cn1` displayed an IC50 of 50 to 200 nM.

`CN(C)C(=O)c1ccc(NC(=O)Nc2ccc(-c3nc(N4CCOCC4)c4ccc(-c5ccc(CO)o5)cc4n3)cc2)c(F)c1` yielded an IC50 of under 50 nM.

Molecule `Cc1ccc(-c2ccc3c(N4CCOCC4)nc(-c4ccc(NC(=O)Nc5ccc(C(=O)N(C)C)c(F)c5)cc4)nc3c2)o1` came in with an IC50 of 50 to 200 nM.

For `CC(=O)c1ccc(-c2ccc3c(N4CCOCC4)nc(-c4ccc(NC(=O)Nc5ccc(C(=O)N(C)C)cc5)cc4)nc3c2)o1`, the 50% inhibitory concentration (IC50) was under 50 nM.

In turn, `Cc1ccc(-c2ccc3c(N4CCOCC4)nc(-c4ccc(NC(=O)Nc5ccc(C(=O)N6CCC(O)C6)cc5)cc4)nc3c2)o1` (stereo unspecified) returned an IC50 of under 50 nM.

As for `CN(C)C(=O)c1ccc(NC(=O)Nc2cc(F)c(-c3nc(N4CCOCC4)c4ccc(-c5cncnc5)cc4n3)cc2F)cc1`, the IC50 was in the range of 50 to 200 nM.

As for `CN1CCN(C(=O)c2ccc(NC(=O)Nc3ccc(-c4nc(N5CCOCC5)c5ccc(-c6cnn(C)c6)cc5n4)cc3)cc2)CC1`, the IC50 fell in the range of 50 to 200 nM.

Molecule `CN(C)C(=O)c1ccc(NC(=O)Nc2ccc(-c3nc(N4CCOCC4)c4ccc(-c5ccsc5)cc4n3)cc2)cc1` yielded an IC50 of under 50 nM.

`CN(C)C(=O)c1ccc(NC(=O)Nc2ccc(-c3nc(N4CCOCC4)c4ncc(-c5cncnc5)cc4n3)cc2)c(F)c1` came in with an IC50 of under 50 nM.

Turning to `Cc1noc(C)c1-c1ccc2c(N3CCOCC3)nc(-c3ccc(NC(=O)Nc4ccc(C(=O)N5CC[C@H](N(C)C)C5)cc4)cc3)nc2c1`, the IC50 lay within 50 to 200 nM.

For `COc1ccc2c(N3CCOCC3)nc(-c3ccc(NC(=O)Nc4ccc(C(=O)N(C)C)cc4)cc3)nc2c1`, the IC50 was under 50 nM.

Take `CC(O)c1ccc(-c2ccc3c(N4CCOCC4)nc(-c4ccc(NC(=O)Nc5ccc(C(=O)N(C)C)cc5)c(F)c4)nc3c2)o1` (stereo unspecified): the IC50 was under 50 nM.

Molecule `CC(O)c1ccc(-c2cnc3c(N4CCOCC4)nc(-c4ccc(NC(=O)Nc5ccc(C(=O)N(C)C)cc5)c(F)c4)nc3c2)o1` (stereo unspecified) had an IC50 of under 50 nM.

For `CN(C)C(=O)c1ccc(NC(=O)Nc2ccc(-c3nc(N4CCOCC4)c4ccc(-c5cccnc5F)cc4n3)cc2F)cc1`, the 50% inhibitory concentration (IC50) is under 50 nM.

For `CN(C)C(=O)c1ccc(NC(=O)Nc2ccc(-c3nc(N4CCOCC4)c4ncc(-c5cnc(N(C)C)nc5)cc4n3)cc2)cc1`, the half-maximal inhibitory concentration (IC50) was under 50 nM.

`CN(C)C(=O)c1ccc(NC(=O)Nc2ccc(-c3nc(N4CCOCC4)c4ccc(-c5cccc(CO)c5)cc4n3)cc2)cc1` had an IC50 of under 50 nM.

Molecule `CN(C)C(=O)c1ccc(NC(=O)Nc2ccc(-c3nc(N4CCOCC4)c4ccc(-c5cccc(S(C)(=O)=O)c5)cc4n3)cc2)cc1` displayed an IC50 of under 50 nM.

On to `Cc1ccc(-c2cc3nc(-c4ccc(NC(=O)Nc5ccc(C(=O)N(C)C)cc5)cc4)nc(N4CCOCC4)c3cc2F)o1`, for which the IC50 lay within 50 to 200 nM.

With `CN(C)C(=O)c1ccc(NC(=O)Nc2ccc(-c3nc(N4CCOCC4)c4ccc(-c5cccc(O)c5)cc4n3)cc2)cc1`, the IC50 was under 50 nM.

`CC(O)c1ccc(-c2ccc3c(N4CCOCC4)nc(-c4ccc(NC(=O)Nc5ccc(C(=O)N(C)C)cc5)cc4F)nc3c2)o1` (stereo unspecified) came in with an IC50 of 50 to 200 nM.

`CC(=O)Nc1ccc(NC(=O)Nc2ccc(-c3nc(N4CCOCC4)c4ccc(-c5ccc(C)o5)cc4n3)cc2)cc1` returned an IC50 of 50 to 200 nM.

Consider `CN(C)C(=O)c1ccc(NC(=O)Nc2ccc(-c3nc(N4CCOCC4)c4ccc(-c5cncc(S(C)(=O)=O)c5)cc4n3)cc2)cc1`, for which the IC50 is under 50 nM.

In turn, `CN(C)CCNC(=O)c1ccc(-c2ccc3c(N4CCOCC4)nc(-c4ccc(NC(=O)Nc5ccc(C(=O)N(C)C)cc5)cc4)nc3c2)o1` came in with an IC50 of 50 to 200 nM.

As for `N[C@H]1CCN(C(=O)c2ccc(NC(=O)Nc3ccc(-c4nc(N5CCOCC5)c5ccc(-c6cncnc6)cc5n4)cc3)cc2)C1`, the IC50 was under 50 nM.

`CN(C)C(=O)c1ccc(NC(=O)Nc2ccc(-c3nc(N4CCOCC4)c4ccc(-c5cccc(N(C)C)c5)cc4n3)cc2)cc1` gave an IC50 of under 50 nM.

For the molecule `CN(C)[C@H]1CCN(C(=O)c2ccc(NC(=O)Nc3ccc(-c4nc(N5CCOCC5)c5ncc(-c6cnn(C)c6)cc5n4)cc3)cc2)C1`, the IC50 is under 50 nM.

The molecule `CN(C)C(=O)c1ccc(NC(=O)Nc2ccc(-c3nc(N4CCOCC4)c4cc(F)c(-c5cncnc5)cc4n3)cc2F)cc1` yielded an IC50 of under 50 nM.

The molecule `CN(C)C(=O)c1ccc(NC(=O)Nc2ccc(-c3nc(N4CCOCC4)c4ncc(-c5cnn(C)c5)cc4n3)cc2)c(F)c1` had an IC50 of under 50 nM.

Regarding `CC(=O)Nc1cncc(-c2ccc3c(N4CCOCC4)nc(-c4ccc(NC(=O)Nc5ccc(C(=O)N(C)C)cc5)cc4)nc3c2)c1`, the IC50 was under 50 nM.

In the case of `CC(=O)Nc1ccc(NC(=O)Nc2ccc(-c3nc(N4CCOCC4)c4ccc(-c5cncnc5)cc4n3)cc2)cc1`, the IC50 was under 50 nM.

As to `COc1cccc(-c2ccc3c(N4CCOCC4)nc(-c4ccc(NC(=O)Nc5ccc(C(=O)N(C)C)cc5)cc4)nc3c2)n1`, the IC50 was 50 to 200 nM.

`CN(C)C(=O)c1ccc(NC(=O)Nc2ccc(-c3nc(N4CCOCC4)c4ccc(-c5cncnc5)cc4n3)cc2F)cc1` yielded an IC50 of 50 to 200 nM.

In the case of `CN(C)C(=O)c1ccc(NC(=O)Nc2ccc(-c3nc(N4CCOCC4)c4ccc(-c5cccnc5F)cc4n3)c(F)c2)cc1`, the IC50 was under 50 nM.

Turning to `CN(C)C(=O)c1ccc(NC(=O)Nc2ccc(-c3nc(N4CCOCC4)c4ccc(-c5ccco5)cc4n3)cc2)c(F)c1`, the half-inhibitory concentration (IC50) was under 50 nM.

`CN(C)C(=O)c1ccc(NC(=O)Nc2ccc(-c3nc(N4CCOCC4)c4cc(F)c(-c5cncnc5)cc4n3)cc2)c(F)c1`: the IC50 is 50 to 200 nM.

`CN(C)[C@H]1CCN(C(=O)c2ccc(NC(=O)Nc3ccc(-c4nc(N5CCOCC5)c5ccc(C(C)(C)O)cc5n4)cc3)cc2)C1` returned an IC50 of 50 to 200 nM.

The values above are taken from the Kinase Knowledgebase extract (Sharma et al. 2016).
